Data from patent US20210290644A1, “COMPOUNDS AND METHODS FOR TREATING FUNGAL INFECTIONS” (Amplyx Pharmaceuticals, Inc., priority 2018, published 2021).
Values joined by “and” are separate entries in the source; they are usually repeats but may differ in a detail not shown here. Identical values can stand only once.

Experiment: Study #1 Phase 1: plasma and urine pharmacokinetics of Compound 1 and Compound 1A after IV infusion of Compound 1 (SAD, MAD, loading regimen)
Conditions: both, human, plasma; for Vd: Vz
[1] = 200 mg, Cohort 4: Compound 1 200 mg/3 hr IV, single dose, geometric mean [geometric %CV]
[2] = 275 mg, Cohort 5: Compound 1 275 mg/3 hr IV, single dose, geometric mean [geometric %CV]
[3] = 300 mg, Cohort 9: Compound 1 300 mg/3 hr IV QD × 14 days, Day 14, geometric mean
[4] = 600 mg, Cohort 10: Compound 1 600 mg/3 hr IV QD × 14 days, Day 14, geometric mean
[5] = 600 mg, Cohort 12 loading regimen: Compound 1 600 mg/1 hr IV QD, Day 7, geometric mean
[6] = 1000 mg, Cohort 11: Compound 1 1,000 mg/0.5 hr IV, single dose, geometric mean
[7] = 1000 mg, Cohort 11: Compound 1 1,000 mg/1 hr IV, single dose, geometric mean
[8] = 1000 mg, Cohort 11: Compound 1 1,000 mg/2 hr IV, single dose, geometric mean
[9] = 1000 mg, Cohort 11: Compound 1 1,000 mg/3 hr IV, single dose, geometric mean

Nc1ncccc1-c1cc(Cc2ccc(COc3ccccn3)cc2)no1 [Compound 1A]
Tmax (150 mg, Cohort 8: Compound 1 150 mg/3 hr IV QD × 14 days, Day 14, median): 3.02 h
AUC(0-t) (200 mg, AUC(0-24), Cohort 4: Compound 1 200 mg/3 hr IV, single dose, geometric mean [geometric %CV]): 20.7 µg·h/mL
AUC(0-inf) [1]: 83.2 µg·h/mL
Cmax [1]: 2410 ng/mL
Tmax (200 mg, Cohort 4: Compound 1 200 mg/3 hr IV, single dose, median): 3 h
Vd [1]: 178 L and 2.46 L/kg
AUC(0-t) (275 mg, AUC(0-24), Cohort 5: Compound 1 275 mg/3 hr IV, single dose, geometric mean [geometric %CV]): 37.1 µg·h/mL
AUC(0-t) (275 mg, AUC(0-t), Cohort 5: Compound 1 275 mg/3 hr IV, single dose, geometric mean [geometric %CV]): 114 µg·h/mL
AUC(0-inf) [2]: 120 µg·h/mL
Cmax [2]: 3960 ng/mL
Tmax (275 mg, Cohort 5: Compound 1 275 mg/3 hr IV, single dose, median): 3 h
Vd [2]: 123 L and 1.75 L/kg
AUC(0-t) (300 mg, AUC(0-24), Cohort 9: Compound 1 300 mg/3 hr IV QD × 14 days, Day 1, geometric mean): 37.1 µg·h/mL
AUC(0-t) (300 mg, AUC(0-24), Cohort 9: Compound 1 300 mg/3 hr IV QD × 14 days, Day 7, geometric mean): 104 µg·h/mL
AUC(0-t) (300 mg, AUC(0-24), Cohort 9: Compound 1 300 mg/3 hr IV QD × 14 days, Day 14, geometric mean): 118 µg·h/mL
Cmax (300 mg, Cohort 9: Compound 1 300 mg/3 hr IV QD × 14 days, Day 1, geometric mean): 3690 ng/mL
Cmax (300 mg, Cohort 9: Compound 1 300 mg/3 hr IV QD × 14 days, Day 7, geometric mean): 6650 ng/mL
Cmax [3]: 7520 ng/mL
Tmax (300 mg, Cohort 9: Compound 1 300 mg/3 hr IV QD × 14 days, Day 1, median): 3 h
Tmax (300 mg, Cohort 9: Compound 1 300 mg/3 hr IV QD × 14 days, Day 7, median): 3 h
Tmax (300 mg, Cohort 9: Compound 1 300 mg/3 hr IV QD × 14 days, Day 14, median): 3.02 h
Vd [3]: 148 L and 2.22 L/kg
Tmax (350 mg, Cohort 6: Compound 1 350 mg/3 hr IV, single dose, median): 3 h
AUC(0-t) (600 mg, AUC(0-24), Cohort 10: Compound 1 600 mg/3 hr IV QD × 14 days, Day 1, geometric mean): 72.7 µg·h/mL
AUC(0-t) (600 mg, AUC(0-24), Cohort 10: Compound 1 600 mg/3 hr IV QD × 14 days, Day 7, geometric mean): 217 µg·h/mL
AUC(0-t) (600 mg, AUC(0-24), Cohort 10: Compound 1 600 mg/3 hr IV QD × 14 days, Day 14, geometric mean): 245 µg·h/mL
AUC(0-t) (600 mg, AUC(0-24), Cohort 12 loading regimen: Compound 1 600 mg/1 hr IV QD, Day 4, geometric mean): 219 µg·h/mL
AUC(0-t) (600 mg, AUC(0-24), Cohort 12 loading regimen: Compound 1 600 mg/1 hr IV QD, Day 7, geometric mean): 201 µg·h/mL
Cmax (600 mg, Cohort 10: Compound 1 600 mg/3 hr IV QD × 14 days, Day 1, geometric mean): 7570 ng/mL
Cmax (600 mg, Cohort 10: Compound 1 600 mg/3 hr IV QD × 14 days, Day 7, geometric mean): 14500 ng/mL
Cmax [4]: 15400 ng/mL
Cmax (600 mg, Cohort 12 loading regimen: Compound 1 600 mg/1 hr IV QD, Day 4, geometric mean): 17900 ng/mL
Cmax [5]: 17700 ng/mL
Tmax (600 mg, Cohort 10: Compound 1 600 mg/3 hr IV QD × 14 days, Day 1, median): 3 h
Tmax (600 mg, Cohort 10: Compound 1 600 mg/3 hr IV QD × 14 days, Day 7, median): 3.03 h
Tmax (600 mg, Cohort 10: Compound 1 600 mg/3 hr IV QD × 14 days, Day 14, median): 3 h
Tmax (600 mg, Cohort 12 loading regimen: Compound 1 600 mg/1 hr IV QD, Day 4, median): 1 h
Tmax (600 mg, Cohort 12 loading regimen: Compound 1 600 mg/1 hr IV QD, Day 7, median): 1 h
Vd [4]: 175 L and 2.75 L/kg
Vd [5]: 162 L and 2.27 L/kg
AUC(0-t) (1000 mg, AUC(0-24), Cohort 11: Compound 1 1,000 mg/0.5 hr IV, single dose, geometric mean): 131 µg·h/mL
AUC(0-t) (1000 mg, AUC(0-24), Cohort 11: Compound 1 1,000 mg/1 hr IV, single dose, geometric mean): 134 µg·h/mL
AUC(0-t) (1000 mg, AUC(0-24), Cohort 11: Compound 1 1,000 mg/2 hr IV, single dose, geometric mean): 130 µg·h/mL
AUC(0-t) (1000 mg, AUC(0-24), Cohort 11: Compound 1 1,000 mg/3 hr IV, single dose, geometric mean): 117 µg·h/mL
AUC(0-t) (1000 mg, AUC(0-24), Cohort 12 loading regimen: Compound 1 1,000 mg/2 hr IV at 0 & 9 hr, Day 1, geometric mean): 211 µg·h/mL
AUC(0-t) (1000 mg, AUC(0-t), Cohort 11: Compound 1 1,000 mg/1 hr IV, single dose, geometric mean): 481 µg·h/mL
AUC(0-t) (1000 mg, AUC(0-t), Cohort 11: Compound 1 1,000 mg/2 hr IV, single dose, geometric mean): 476 µg·h/mL
AUC(0-inf) [6]: 434 µg·h/mL
AUC(0-inf) [7]: 536 µg·h/mL
AUC(0-inf) [8]: 541 µg·h/mL
AUC(0-inf) [9]: 400 µg·h/mL
Cmax [6]: 24900 ng/mL
Cmax [7]: 20100 ng/mL
Cmax [8]: 15600 ng/mL
Cmax [9]: 11900 ng/mL
Cmax (1000 mg, Cohort 12 loading regimen: Compound 1 1,000 mg/2 hr IV at 0 & 9 hr, Day 1, geometric mean): 15700 ng/mL
Tmax (1000 mg, Cohort 11: Compound 1 1,000 mg/0.5 hr IV, single dose, median): 0.52 h
Tmax (1000 mg, Cohort 11: Compound 1 1,000 mg/1 hr IV, single dose, median): 1.02 h
Tmax (1000 mg, Cohort 11: Compound 1 1,000 mg/2 hr IV, single dose, median): 2.02 h
Tmax (1000 mg, Cohort 11: Compound 1 1,000 mg/3 hr IV, single dose, median): 3.02 h
Tmax (1000 mg, Cohort 12 loading regimen: Compound 1 1,000 mg/2 hr IV at 0 & 9 hr, Day 1, median): 11 h
Vd [6]: 141 L and 19.7 L/kg
Vd [7]: 139 L and 2.11 L/kg
Vd [8]: 153 L and 2.43 L/kg
Vd [9]: 153 L and 2.02 L/kg
